Measurements from patent US9035051B1, “Ghrelin O-acyl transferase inhibitor” (Eli Lilly and Company, priority 2013, dated 2015).

Tests used:
human GOAT = biological target: T1, human GOAT (Homo sapiens, UniProt Q96T53); assay: In vitro cell free human GOAT enzymatic assay; format: biochemical; conditions: GOAT-His/sf9 microsomal membrane enzyme preparation; ELISA of acyl-ghrelin; n=5
T1 construct: His; made in house; host or cells: Sf9 insect cells (baculovirus, pAN51 vector); used as microsomal membrane preparation
T1 sequence (Q96T53 1-435): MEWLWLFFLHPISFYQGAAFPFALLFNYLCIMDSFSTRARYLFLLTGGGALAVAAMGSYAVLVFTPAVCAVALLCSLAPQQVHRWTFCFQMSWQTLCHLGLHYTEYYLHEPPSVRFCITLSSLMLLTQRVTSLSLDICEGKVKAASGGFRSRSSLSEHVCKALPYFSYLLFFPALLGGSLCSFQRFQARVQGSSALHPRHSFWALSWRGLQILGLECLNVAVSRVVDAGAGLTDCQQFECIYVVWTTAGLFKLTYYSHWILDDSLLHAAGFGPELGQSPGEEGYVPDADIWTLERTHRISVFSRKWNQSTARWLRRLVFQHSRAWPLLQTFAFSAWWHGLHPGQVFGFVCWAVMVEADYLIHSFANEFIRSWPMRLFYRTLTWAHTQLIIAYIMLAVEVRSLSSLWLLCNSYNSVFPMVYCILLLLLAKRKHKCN
Experimental: Human GOAT gene (Accession number: NM_001100916) is subcloned to pAN51 baculoviral expression vector. Baculovirus stock is prepared following the Bac-to-Bac Protocol provided by the vendor, Invitrogen, California, USA. Five milliliters of human GOAT baculoviral stock are added to 500 mL Sf9 cells in HyQ SFX-Insect™ media (HyClone catalog number SH30278.02) at the density of 1×10^6 cells per milliliter in a 2 L Erlenmeyer flask. The flask with human GOAT gene infected Sf9 cells is put on a plate shaker at 120 rpm at 28° C. for 48 h. After 48 h incubation, cells are centrifuged at 1,000×g for 10 min at 4° C. The cell pellets are collected and stored at −80° C. in a freezer until ready for further processing.
One gram cell pellets are suspended in 9 mL chilled homogenization buffer (50 mM Tris-HCl, 250 mM sucrose, adjusted to pH 7.5, and sterile filtered through 0.2 μm Millipore filter). The cell suspension is transferred to a Dounce glass homogenizer. Cell pellets are homogenized with 40 strokes on ice. The homogenate is centrifuged at 3,000 rpm in a Beckman swing bucket rotor at 4° C. for 10 min to remove unbroken cells. […]
Prepare ELISA plates (STREPTAVIDIN SPECTRAPLATE™ 384, Perkin Elmer) by blocking with 2% Heat-Inactivated FBS in PBS (40 μL) (Invitrogen) blocking buffer for 3 h. […] Read plates at 450 nm using an Envision Multilabel plate reader. […]

GOAT enzyme = biological target: T2, GOAT enzyme (Mus musculus, UniProt P0C7A3); assay: In vivo dose dependent 3 day BID study for GOAT inhibitor (plasma AG and UAG by ELISA); parameters: species or system male C57BL/6 mice; conditions: 3 days; for AG (% of control) / AG/Total-ghrelin (% of vehicle control) / UAG (% of vehicle control) / increase of UAG: plasma; for increase of UAG / decrease of plasma AG: vs vehicle; for reduction in AG to total ghrelin ratio: vs vehicle-treated control animals
T2 construct: endogenous in cells; host or cells: male C57BL/6 mice (whole animal, oral dosing; plasma AG/UAG read-out)
T2 sequence (P0C7A3 1-435): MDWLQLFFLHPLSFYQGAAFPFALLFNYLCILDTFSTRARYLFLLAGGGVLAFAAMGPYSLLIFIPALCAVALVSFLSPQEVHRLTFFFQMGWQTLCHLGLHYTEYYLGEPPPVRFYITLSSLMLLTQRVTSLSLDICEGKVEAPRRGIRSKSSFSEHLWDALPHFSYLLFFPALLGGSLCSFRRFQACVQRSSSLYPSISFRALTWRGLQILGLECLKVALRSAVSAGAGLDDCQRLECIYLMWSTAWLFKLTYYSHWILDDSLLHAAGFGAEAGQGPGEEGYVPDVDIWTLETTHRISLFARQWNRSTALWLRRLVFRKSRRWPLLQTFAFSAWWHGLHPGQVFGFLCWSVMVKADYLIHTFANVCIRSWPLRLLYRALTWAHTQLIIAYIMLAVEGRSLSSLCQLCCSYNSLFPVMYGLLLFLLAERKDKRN
Experimental: Comparing the change in the ratio of AG to total ghrelin in the compound treated group and that of the vehicle treated group reflects the degree of GOAT enzyme inhibition in vivo, due to the dynamic processing of UAG to AG by the GOAT enzyme. In the in vivo pharmacodynamic studies herein, the levels of AG and UAG in plasma and stomach in the vehicle and compound treated groups are measured by ELISA specifically to these two analytes. The total ghrelin level of each sample is computed as the sum of AG and UAG by these ELISA measurements. The ratio of AG to total ghrelin is defined by the level of AG in each sample divided by the level of total ghrelin in the same sample. The levels of AG, UAG and ratio of AG to total ghrelin in the vehicle treated group is computed and set as 100%. The relative change of these parameters in the compound treated group is then computed to determine the effectiveness of the test compound.
Purchase male C57BL/6 mice from Harlan (Indianapolis, Ind.) at 9 weeks of age. House the mice individually in a temperature-controlled (24° C.) facility with a 12 h light/dark cycle (lights on 2200 h), and allow free access to a standard rodent chow (diet 2014, Harlan) and water. Typically, use the mice when they are 10-13 weeks of age at the time of the study. On day 0 of the experiment, randomize the mice into treatment groups (N=7/group) so each group has similar mean body weights. On day 1 and day 2, treat the animals with vehicle (1% hydroxyethylcellulose, 0.25% Tween 80, 0.05% antifoam) or test compound prepared in the vehicle as suspension at various dosages by oral gavage at 7 am and 7 pm. On day 3, fast the animals, move them into clean cages and dose with vehicle or the test compound again at 8 am by oral gavage. That same day at 1 pm, sacrifice the animals by decapitation to collect blood. For details of blood collection and plasma treatments see Blood collection and Extraction of Ghrelin from Plasma section below.
Collect approximately 600 μL blood into a pre-weighed EDTA tube containing 600 μL (defined as Vpreservative) freshly-prepared preservative (4 mM PEFABLOC® [4-(2-aminoethyl) benzenesulfonyl fluoride hydrochloride], 72 mM NaCl, 58 mM NaF, 0.032 N hydrochloric acid, pH 3.0) and mix immediately. Weigh the tube again and keep on ice. To accurately determine the exact blood volume of each sample using this blood collection procedure, the weight of the blood for each mouse is computed using the following equation: Weight of Blood=(Weight of the tube containing Blood+preservative)−(Weight of the tube containing preservative) Blood volume(Vblood)=(Weight of blood)/1.06
Within 15 minutes after the blood collection, samples are centrifuged at 5000 rpm at 4° C. for 8 min Remove plasma (650 μL) to a 5 mL glass tube containing 1 N hydrochloric acid (65 μL), mix and keep on ice.
AG and UAG are extracted from plasma using SEP-PAK®_C18 column to remove interference prior to performing the ELISA. The solid phase extraction of AG and UAG peptides by SEP-PAK®_C18 columns can be performed on a vacuum manifold (Waters Corp) or using a peristaltic pump. The sample SEP-PAK®_column extraction procedure is independently applied to the plasma sample obtained from each individual mouse. The general extraction protocol is described as follows.
All solutions used for the entire protocol of the SEP-PAK® column extraction should be at ice cold condition. Wet SEP-PAK®_columns (WAT054960, Waters Corp, Milford Mass.) with 99.9% ACN/0.1% TFA (1 mL of solution of 100 mL ACN/0.1 mL TFA). […] Once liquid is removed from the column, stop the pressure. Equilibrate the columns with 3% ACN/0.1% TFA (1 mL of 97 mL water, 3 mL ACN, 0.1 mL TFA). […] Dilute approximately 650 μL acidified plasma (defined as Vplasma added to column) to 1.4 mL ice cold 0.1% TFA. Load all diluted acidified plasma from the previous step onto the columns. […] Wash with 3% ACN/0.1% TFA (0.9 mL of 97 mL water, 3 mL ACN, 0.1 mL TFA). […] Repeat the wash two more times. […]

Cc1nc(N)c(CCC2CCN(C(=O)[C@H](C)NC(=O)C3CC3)CC2)c(Cl)n1 [Example 1, N-[(1S)-2-[4-[2-(4-Amino-6-chloro-2-methyl-pyrimidin-5-yl)ethyl]-1-piperidyl]-1-methyl-2-oxo-ethyl]cyclopropanecarboxamide]
IC50 (human GOAT): ~192 nM
AG (% of control) (GOAT enzyme; 0.3 mg/kg oral gavage BID): 101 ± 025 % of control
AG/Total-ghrelin (% of vehicle control) (GOAT enzyme; 0.3 mg/kg oral gavage BID): 61 ± 04 % of vehicle control
UAG (% of vehicle control) (GOAT enzyme; 0.3 mg/kg oral gavage BID): 224 ± 035 % of vehicle control
increase of UAG (GOAT enzyme; 0.3 mg/kg oral gavage BID): 2.24 fold
decrease of plasma AG (GOAT enzyme; 0.3 mg/kg oral gavage BID): −1%
reduction in AG to total ghrelin ratio (GOAT enzyme; 0.3 mg/kg oral gavage BID): 39%
AG (% of control) (GOAT enzyme; 1 mg/kg oral gavage BID): 95 ± 018 % of control
AG/Total-ghrelin (% of vehicle control) (GOAT enzyme; 1 mg/kg oral gavage BID): 46 ± 011 % of vehicle control
UAG (% of vehicle control) (GOAT enzyme; 1 mg/kg oral gavage BID): 282 ± 045 % of vehicle control
increase of UAG (GOAT enzyme; 1 mg/kg oral gavage BID): 2.82 fold
decrease of plasma AG (GOAT enzyme; 1 mg/kg oral gavage BID): 5%
reduction in AG to total ghrelin ratio (GOAT enzyme; 1 mg/kg oral gavage BID): 54%
AG (% of control) (GOAT enzyme; 3 mg/kg oral gavage BID): 55 ± 06 % of control
AG/Total-ghrelin (% of vehicle control) (GOAT enzyme; 3 mg/kg oral gavage BID): 29 ± 04 % of vehicle control
UAG (% of vehicle control) (GOAT enzyme; 3 mg/kg oral gavage BID): 253 ± 031 % of vehicle control
increase of UAG (GOAT enzyme; 3 mg/kg oral gavage BID): 2.53 fold
decrease of plasma AG (GOAT enzyme; 3 mg/kg oral gavage BID): 45%
reduction in AG to total ghrelin ratio (GOAT enzyme; 3 mg/kg oral gavage BID): 71%
AG (% of control) (GOAT enzyme; 10 mg/kg oral gavage BID): 52 ± 010 % of control
AG/Total-ghrelin (% of vehicle control) (GOAT enzyme; 10 mg/kg oral gavage BID): 23 ± 04 % of vehicle control
UAG (% of vehicle control) (GOAT enzyme; 10 mg/kg oral gavage BID): 289 ± 044 % of vehicle control
increase of UAG (GOAT enzyme; 10 mg/kg oral gavage BID): 2.89 fold
decrease of plasma AG (GOAT enzyme; 10 mg/kg oral gavage BID): 48%
reduction in AG to total ghrelin ratio (GOAT enzyme; 10 mg/kg oral gavage BID): 77%
